The NIST ThermoML archive (doi:10.1016/j.jct.2015.09.020)
Numbers after ± are expanded uncertainties.

Assay: mn = molality of the nth substance listed, in mol/kg
Details: 101.3 kPa, Liquid

NCCCC(=O)O [4-aminobutanoic acid] + O
Details | speed of sound [m/s]
278.15 K, Frequency=2 MHz, Linear variable-path acoustic interferometer, m1 = 0.0495 | 1431.4 ± 1.7
278.15 K, Frequency=2 MHz, Linear variable-path acoustic interferometer, m1 = 0.0732 | 1433.1 ± 1.7
278.15 K, Frequency=2 MHz, Linear variable-path acoustic interferometer, m1 = 0.0959 | 1435.4 ± 1.7
278.15 K, Frequency=2 MHz, Linear variable-path acoustic interferometer, m1 = 0.1193 | 1436.9 ± 1.7
278.15 K, Frequency=2 MHz, Linear variable-path acoustic interferometer, m1 = 0.1412 | 1439 ± 1.7
278.15 K, Frequency=2 MHz, Linear variable-path acoustic interferometer, m1 = 0.1828 | 1442.1 ± 1.7
278.15 K, Frequency=2 MHz, Linear variable-path acoustic interferometer, m1 = 0.2085 | 1444.1 ± 1.8
278.15 K, Frequency=2 MHz, Linear variable-path acoustic interferometer, m1 = 0.2388 | 1446.9 ± 1.8
278.15 K, Frequency=2 MHz, Linear variable-path acoustic interferometer, m1 = 0.2699 | 1449.7 ± 1.8
278.15 K, Frequency=2 MHz, Linear variable-path acoustic interferometer, m1 = 0.2922 | 1452.3 ± 1.8
278.15 K, Frequency=2 MHz, Linear variable-path acoustic interferometer, m1 = 0.3224 | 1455.4 ± 1.8
278.15 K, Frequency=2 MHz, Linear variable-path acoustic interferometer, m1 = 0.3534 | 1457.4 ± 1.8
288.15 K, Frequency=3 MHz, Sing-around technique in a fixed-path interferometer, m1 = 0.0554 | 1470.3 ± 1.2
288.15 K, Frequency=3 MHz, Sing-around technique in a fixed-path interferometer, m1 = 0.0877 | 1472.6 ± 1.2
288.15 K, Frequency=3 MHz, Sing-around technique in a fixed-path interferometer, m1 = 0.0989 | 1473.5 ± 1.2
288.15 K, Frequency=3 MHz, Sing-around technique in a fixed-path interferometer, m1 = 0.1173 | 1474.9 ± 1.2
288.15 K, Frequency=3 MHz, Sing-around technique in a fixed-path interferometer, m1 = 0.1538 | 1479 ± 1.3
288.15 K, Frequency=3 MHz, Sing-around technique in a fixed-path interferometer, m1 = 0.1809 | 1481.1 ± 1.2
288.15 K, Frequency=3 MHz, Sing-around technique in a fixed-path interferometer, m1 = 0.211 | 1483 ± 1.2
288.15 K, Frequency=3 MHz, Sing-around technique in a fixed-path interferometer, m1 = 0.2389 | 1484.6 ± 1.3
288.15 K, Frequency=3 MHz, Sing-around technique in a fixed-path interferometer, m1 = 0.2692 | 1486.5 ± 1.3
288.15 K, Frequency=3 MHz, Sing-around technique in a fixed-path interferometer, m1 = 0.2861 | 1489.5 ± 1.4
288.15 K, Frequency=3 MHz, Sing-around technique in a fixed-path interferometer, m1 = 0.3181 | 1492.3 ± 1.3
288.15 K, Frequency=3 MHz, Sing-around technique in a fixed-path interferometer, m1 = 0.3496 | 1494.9 ± 1.4
298.15 K, Frequency=3 MHz, Sing-around technique in a fixed-path interferometer, m1 = 0.0494 | 1501.1 ± 1.2
298.15 K, Frequency=3 MHz, Sing-around technique in a fixed-path interferometer, m1 = 0.0781 | 1503.4 ± 1.2
298.15 K, Frequency=3 MHz, Sing-around technique in a fixed-path interferometer, m1 = 0.1017 | 1505.1 ± 1.2
298.15 K, Frequency=3 MHz, Sing-around technique in a fixed-path interferometer, m1 = 0.1227 | 1506.8 ± 1.2
298.15 K, Frequency=3 MHz, Sing-around technique in a fixed-path interferometer, m1 = 0.1469 | 1508.9 ± 1.3
298.15 K, Frequency=3 MHz, Sing-around technique in a fixed-path interferometer, m1 = 0.1846 | 1511.8 ± 1.3
298.15 K, Frequency=3 MHz, Sing-around technique in a fixed-path interferometer, m1 = 0.1944 | 1512.8 ± 1.3
298.15 K, Frequency=3 MHz, Sing-around technique in a fixed-path interferometer, m1 = 0.245 | 1516.7 ± 1.3
298.15 K, Frequency=3 MHz, Sing-around technique in a fixed-path interferometer, m1 = 0.2746 | 1519.2 ± 1.3
298.15 K, Frequency=3 MHz, Sing-around technique in a fixed-path interferometer, m1 = 0.2975 | 1521.1 ± 1.3
298.15 K, Frequency=3 MHz, Sing-around technique in a fixed-path interferometer, m1 = 0.3196 | 1522.6 ± 1.3
298.15 K, Frequency=3 MHz, Sing-around technique in a fixed-path interferometer, m1 = 0.3477 | 1525 ± 1.4

Details | mass density [kg/m3]
278.15 K, Pycnometric method, m1 = 0.0495 | 1001.55 ± 0.28
278.15 K, Pycnometric method, m1 = 0.0732 | 1002.25 ± 0.28
278.15 K, Pycnometric method, m1 = 0.0959 | 1002.93 ± 0.28
278.15 K, Pycnometric method, m1 = 0.1193 | 1003.65 ± 0.29
278.15 K, Pycnometric method, m1 = 0.1412 | 1004.35 ± 0.29
278.15 K, Pycnometric method, m1 = 0.1828 | 1005.72 ± 0.3
278.15 K, Pycnometric method, m1 = 0.2085 | 1006.55 ± 0.31
278.15 K, Pycnometric method, m1 = 0.2388 | 1007.5 ± 0.32
278.15 K, Pycnometric method, m1 = 0.2699 | 1008.41 ± 0.32
278.15 K, Pycnometric method, m1 = 0.2922 | 1009.03 ± 0.33
278.15 K, Pycnometric method, m1 = 0.3224 | 1009.87 ± 0.34
278.15 K, Pycnometric method, m1 = 0.3534 | 1010.83 ± 0.36
288.15 K, Vibrating tube method, m1 = 0.0554 | 1000.83 ± 0.11
288.15 K, Vibrating tube method, m1 = 0.0877 | 1001.66 ± 0.12
288.15 K, Vibrating tube method, m1 = 0.0989 | 1002.15 ± 0.13
288.15 K, Vibrating tube method, m1 = 0.1173 | 1002.71 ± 0.12
288.15 K, Vibrating tube method, m1 = 0.1538 | 1003.54 ± 0.13
288.15 K, Vibrating tube method, m1 = 0.1809 | 1004.28 ± 0.15
288.15 K, Vibrating tube method, m1 = 0.211 | 1005.14 ± 0.17
288.15 K, Vibrating tube method, m1 = 0.2389 | 1006.01 ± 0.18
288.15 K, Vibrating tube method, m1 = 0.2692 | 1006.87 ± 0.19
288.15 K, Vibrating tube method, m1 = 0.2861 | 1007.43 ± 0.2
288.15 K, Vibrating tube method, m1 = 0.3181 | 1008.36 ± 0.23
288.15 K, Vibrating tube method, m1 = 0.3496 | 1009.41 ± 0.26
298.15 K, Vibrating tube method, m1 = 0.0494 | 998.48 ± 0.11
298.15 K, Vibrating tube method, m1 = 0.0781 | 999.35 ± 0.12
298.15 K, Vibrating tube method, m1 = 0.1017 | 1000.09 ± 0.12
298.15 K, Vibrating tube method, m1 = 0.1227 | 1000.7 ± 0.13
298.15 K, Vibrating tube method, m1 = 0.1469 | 1001.41 ± 0.14
298.15 K, Vibrating tube method, m1 = 0.1846 | 1002.51 ± 0.15
298.15 K, Vibrating tube method, m1 = 0.1944 | 1002.74 ± 0.14
298.15 K, Vibrating tube method, m1 = 0.245 | 1004.3 ± 0.18
298.15 K, Vibrating tube method, m1 = 0.2746 | 1004.99 ± 0.17
298.15 K, Vibrating tube method, m1 = 0.2975 | 1005.61 ± 0.21
298.15 K, Vibrating tube method, m1 = 0.3196 | 1006.38 ± 0.22
298.15 K, Vibrating tube method, m1 = 0.3477 | 1007.09 ± 0.21
